pIC50: −log10 of the molar value.

The values below come from BindingDB's records for patent US10941160 (Celgene Quanticel Research, 2021).

This test deals with Bromodomain-containing protein 4 (Homo sapiens, UniProt O60885). The test can be described thus: In Vitro Enzyme Inhibition Assay. The method, then:
His-tagged BRD4 was cloned, expressed and purified to homogeneity. BRD4 binding and inhibition was assessed by monitoring the interaction of biotinylated H4-tetraacetyl peptide (AnaSpec, H4K5/8/12/16(Ac), biotin-labeled) with the target using the AlphaScreen technology ([…]). […] After 20 min incubation at room temp, Alpha streptavidin donor beads and Nickel Chelate acceptor beads were added to a final concentration of 5 μg/mL.
In the case of `CCNS(O)(O)c1cccc(-c2cn(C)c(=O)c3cc(F)ccc23)c1` [US10941160, Example 59], the IC50 entry is “in the range around 2750 nM”.
As for `CCS(O)(O)c1ccc(OCC#CC2CC2)c(-c2cc(OC)c(=O)n(C)c2)c1` [US10941160, Example 391], the pIC50 was more than 6.30.
On to `CCS(O)(O)Cc1ccc(OCC(F)(F)F)c(-c2cc(C)c(=O)n(C)c2)c1` [US10941160, Example 411], for which the pIC50 is more than 6.30.
As to `CCS(O)(O)c1ccc(Nc2ccc(F)cc2F)c(-c2cc(C)c(=O)n(C)c2)c1` [US10941160, Example 396], the pIC50 is more than 6.30.
Take `CCS(O)(O)c1ccc(OCC2CC2)c(-c2cn(C)c(=O)c3ccccc23)c1` [US10941160, Example 135]: the pIC50 is more than 6.30.
For `CCS(O)(O)Nc1cc(Oc2ccc(F)cc2F)cc(-c2cc(C)c(=O)n(C)c2)c1` [US10941160, Example 342], the pIC50 is more than 6.30.
Still for that read-out and setting: next, `Cn1cc(-c2cc(S(N)(O)O)ccc2Oc2ccc(F)cc2F)ccc1=O` [US10941160, Example 118]: more than 6.30.
Same read-out and setting: with `COc1ccc2c(=O)n(C)cc(-c3cc(S(O)(O)C(C)C)ccc3OCC3CC3)c2c1` [US10941160, Example 393] the figure was more than 6.30; with `CCS(O)(O)c1cccc(-c2cn(C)c(=O)c3cncn23)c1` [US10941160, Example 133], less than 5.30.
The same measure, in the same setting: with `CCS(O)(O)c1ccc(OCC2CC2)c(-c2cn(C)c(=O)c3ccoc23)c1` [US10941160, Example 378] the figure was more than 6.30; with `C#Cc1cc(-c2cc(S(O)(O)CC)ccc2OCC2CC2)cn(C)c1=O` [US10941160, Example 284], more than 6.30.
`CCS(O)(O)c1ccc(OCC2CC2)c(-c2cn(C)c(=O)c3occc23)c1` [US10941160, Example 252] had a pIC50 of more than 6.30.
Still for that read-out and setting: with `COc1ccc(-c2cn(C)c(=O)c3cnccc23)cc1S(O)(O)NCc1ccccc1` [US10941160, Example 54] the figure was less than 5.30.
Same read-out and setting: with `CCS(O)(O)c1ccc(OCC2CC2)c(-c2cn(C)c(=O)c3cnc(-c4cnn(C)c4)nc23)c1` [US10941160, Example 226] the figure was more than 6.30; with `CCS(O)(O)c1ccc(OCC2CC2)c(-c2cn(C)c(=O)c3ccccc23)n1` [US10941160, Example 206], more than 6.30; with `CCS(O)(O)c1ccc(OCC2CC2)c(-c2cc(Cl)c(=O)n(C)c2)c1` [US10941160, Example 272], more than 6.30.
In the case of `CCS(O)(O)c1ccc(OCC2CC2)c(-c2cn(C)c(=O)c3cncn23)c1` [US10941160, Example 368], the pIC50 is more than 6.30.
The same measure, in the same setting: next, `CCS(O)(O)c1ccc(OCC2CC2)c(-c2cc(OC)c(=O)n(C)c2)c1` [US10941160, Example 399]: more than 6.30; `COc1ccc(S(O)(O)CCO)cc1-c1cn(C)c(=O)c2ccc(-c3cnn(C)c3)cc12` [US10941160, Example 208]: more than 6.30.
`Cn1cc(-c2cccc(S(N)(O)O)c2)c2ccncc2c1=O` [US10941160, Example 55] had a pIC50 of less than 5.30.
Same read-out and setting: with `CCS(O)(O)c1ccc(Oc2ccc(F)cc2F)c(-c2cn(C)c(=O)c3cncn23)c1` [US10941160, Example 376] the figure was more than 6.30; with `CCS(O)(O)c1ccc(OCC2CC2)c(-c2cc(F)c(=O)n(C)c2)c1` [US10941160, Example 274], more than 6.30; with `CCS(O)(O)c1ccc(OC)c(-c2cn(C)c(=O)c3ccc(-c4cn[nH]c4)cc23)c1` [US10941160, Example 210], more than 6.30.
Same read-out and setting: next, `CCCCc1cnc(NS(O)(O)CC)nc1-c1cc(OC)c(=O)n(C)c1` [US10941160, Example 362]: more than 6.30.
Still for that read-out and setting: next, `CCS(O)(O)Nc1cc(OCc2ccccc2)cc(-c2cc(C)c(=O)n(C)c2)c1` [US10941160, Example 395]: more than 6.30; `CCS(O)(O)c1ccc(OCC2CC2)c(-c2cn(C)c(=O)c3ccc(-c4cnn(C)c4)cc23)c1` [US10941160, Example 82]: more than 6.30; `CCS(O)(O)c1ccc(Oc2ccc(F)cc2F)c(-c2cc(F)c(=O)n(C)c2)c1` [US10941160, Example 121]: more than 6.30.
The compound `CCS(O)(O)c1ccc(OCC2CC2)c(-c2cn(C)c(=O)c3c2CCCC3)c1` [US10941160, Example 219] had a pIC50 of more than 6.30.
Same read-out and setting: next, `CCS(O)(O)c1ccc(NCC2CC2)c(-c2cn(C)c(=O)c3cc(F)ccc23)c1` [US10941160, Example 195]: more than 6.30.
Same read-out and setting: next, `CCS(O)(O)c1ccc(OC2CCCC2)c(-c2cn(C)c(=O)c3cncn23)c1` [US10941160, Example 374]: more than 6.30.
Same read-out and setting: with `CCS(O)(O)c1ccc(OCC2CC2)c(-c2cc(OCC(F)(F)F)c(=O)n(C)c2)c1` [US10941160, Example 288] the figure was more than 6.30; with `CCS(O)(O)c1ccc(OCC2CC2)c(-c2cc(NC)c(=O)n(C)c2)c1` [US10941160, Example 409], more than 6.30; with `CCS(O)(O)c1cccc(-c2cn(C)c(=O)c(N)n2)c1` [US10941160, Example 105], less than 5.30.
In the case of `CCC#CCOc1ccc(S(O)(O)CC)cc1-c1cc(OC)c(=O)n(C)c1` [US10941160, Example 390], the pIC50 is more than 6.30.
Same read-out and setting: next, `CCS(O)(O)c1ccc(NC2CCC(F)(F)CC2)c(-c2cc(C)c(=O)n(C)c2)c1` [US10941160, Example 397]: more than 6.30; `CCS(O)(O)c1ccc(O)c(-c2cn(C)c(=O)c3ccc(-c4cnn(C)c4)cc23)c1` [US10941160, Example 80]: more than 6.30.
For the compound `CCS(O)(O)c1ccc(OCC2CC2)c(-c2cc(C)c(=O)n(C3CC3)c2)c1` [US10941160, Example 251], the pIC50 was more than 6.30.
Same read-out and setting: with `CCS(O)(O)c1cccc(-c2cc(N)c(=O)n(C)c2)c1` [US10941160, Example 108] the figure was less than 5.30.
Turning to `CCNS(O)(O)c1cccc(-c2cn(C)c(=O)c3cnccc23)c1` [US10941160, Example 53], the IC50 entry was “in the range around 2750 nM”.
Compound `COc1ccc(-c2cn(C)c(=O)c3cnccc23)cc1S(N)(O)O` [US10941160, Example 56] had a pIC50 of less than 5.30.
Still for that read-out and setting: with `CCS(O)(O)c1ccc(OCC2CC2)c(-c2cn(C)c(=O)c3c2OCCN3)c1` [US10941160, Example 366] the figure was more than 6.30; with `CCS(O)(O)c1cccc(-c2cn(C)c(=O)c3ccncc23)c1` [US10941160, Example 126], less than 5.30; with `CCS(O)(O)c1ccc(NCC2CC2)c(-c2cn(C)c(=O)c3ccccc23)c1` [US10941160, Example 193], more than 6.30.
On the same count and under the same terms, with `CCS(O)(O)c1ccc(OCC2CC2)c(-c2cn(C)c(=O)c3cncnc23)c1` [US10941160, Example 232] the figure was more than 6.30.
Same read-out and setting: next, `Cn1cc(-c2cccc(S(N)(O)O)c2)c2ccc(F)cc2c1=O` [US10941160, Example 61]: more than 6.30.
`CCS(O)(O)c1ccc(NCC2CC2)c(-c2cn(C)c(=O)c3cncn23)c1` [US10941160, Example 375] had a pIC50 of more than 6.30.
Regarding `CCS(O)(O)c1ccc(OCC2CC2)c(-c2cc(OC(F)F)c(=O)n(C)c2)c1` [US10941160, Example 287], the pIC50 is more than 6.30.
The same measure, in the same setting: next, `CCOc1ccc(S(O)(O)CC)cc1-c1cn(C)c(=O)c2cnc(-c3cnn(C)c3)nc12` [US10941160, Example 227]: more than 6.30; `CCOc1ccc(S(N)(O)O)cc1-c1ccc(=O)n(C)c1` [US10941160, Example 117]: more than 6.30; `CCCOc1ccc(S(O)(O)CC)cc1-c1cn(C)c(=O)c2cnc(-c3cnn(C)c3)nc12` [US10941160, Example 225]: more than 6.30.
As for `CCCCc1cnc(NS(O)(O)CC)nc1-c1cc(C)c(=O)n(C)c1` [US10941160, Example 310], the pIC50 is more than 6.30.
On the same count and under the same terms, with `CC(C)S(O)(O)c1ccc(OCC2CC2)c(-c2cn(C)c(=O)c3ccccc23)c1` [US10941160, Example 364] the figure was more than 6.30.
As for `Cn1cc(-c2cccc(S(O)(O)NC3CC3)c2)c2ccccc2c1=O` [US10941160, Example 6], the IC50 result is “in the range around 2750 nM”.
Take `CCS(O)(O)c1ccc(NCC2CC2)c(-c2cc(OC)c(=O)n(C)c2)c1` [US10941160, Example 414]: the pIC50 is more than 6.30.
Still for that read-out and setting: next, `Cc1cc(-c2cc(S(O)(O)C(C)C)ccc2OCC2CC2)cn(C)c1=O` [US10941160, Example 394]: more than 6.30.
On the same count and under the same terms, with `CCS(O)(O)c1ccc(OCC2CC2)c(-c2cn(C)c(=O)c3ccc(F)cc23)c1` [US10941160, Example 174] the figure was more than 6.30.
The same measure, in the same setting: next, `CCS(O)(O)c1ccc(OCC2CC2)c(-c2cc(C3CC3)c(=O)n(C)c2)c1` [US10941160, Example 280]: more than 6.30; `CCS(O)(O)c1cnc(OCC2CC2)c(-c2cn(C)c(=O)c3ccccc23)c1` [US10941160, Example 322]: more than 6.30.
Turning to `Cn1cc(-c2nc(N3CCC[SH]3(=O)O)ncc2OCC2CC2)c2ccccc2c1=O` [US10941160, Example 156], the negative-log IC50 (pIC50) is more than 6.30.
On to `COc1ccc(-c2cn(C)c(=O)c3ccccc23)cc1S(N)(O)O` [US10941160, Example 16], for which the IC50 entry is “in the range around 2750 nM”.
The compound `CC#CCOc1ccc(S(O)(O)CC)cc1-c1cc(OC)c(=O)n(C)c1` [US10941160, Example 389] had a pIC50 of more than 6.30.
Turning to `CCS(O)(O)c1ccc(OCC2CC2)c(-c2cn(C)c(=O)c3oc(C)cc23)c1` [US10941160, Example 270], the pIC50 was more than 6.30.
Same read-out and setting: next, `CCS(O)(O)c1ccc(OC2CCC(F)(F)CC2)c(-c2cn(C)c(=O)c3cncn23)c1` [US10941160, Example 373]: more than 6.30; `CCS(O)(O)c1ccc(NCC2CC2)c(-c2cc(NC)c(=O)n(C)c2)c1` [US10941160, Example 408]: more than 6.30; `CCS(O)(O)c1ccc(OCC2CC2)c(-c2cn(C)c(=O)c3sc(C(N)=O)cc23)c1` [US10941160, Example 265]: more than 6.30.
Still for that read-out and setting: with `CC#CCOc1ccc(S(O)(O)CC)cc1-c1cn(C)c(=O)c2ccccc12` [US10941160, Example 185] the figure was more than 6.30.

One may read the IC50 as the point on the concentration scale where inhibition reaches its midpoint. Read a low IC50 as inhibition by little substance. What is called pIC50 is the negative decadic logarithm of the IC50, by convention in mol/L. A higher pIC50 goes with a low IC50.
